According to patent US20230192661A1, “1, 4, 5, 6-TETRAHYDROPYRIMIDINE-2-AMINE DERIVATIVE” (UBE Corporation, priority 2020, published 2023):

How the values were obtained:
[1] = test system: TGF-β activation (phosphorylated SMAD3); experiment: TGF-β activation inhibition test (inhibition of SMAD3 phosphorylation in TFK-1 cells); format: cell-based; conditions: 48 h, fibronectin-coated plate, cultured 2 days, read-out: IC50 (rate of inhibition of phosphorylated SMAD3)
Experimental: In Test Example 3, the inhibition of TGF-β activation by a compound was detected with the inhibition of SMAD3 phosphorylation as an index. In Test Example 3, the same reagents as in Test Example 1 were used unless otherwise specified.
Human fibronectin was prepared at 14 μg/mL with PBS and then dispensed at 50 μL/well to a 96-well plate. The plate was left standing at room temperature for 1 hour or longer, followed by the removal of the fibronectin solution. The plate was washed with PBS and used as a coated plate.
A test compound dissolved in DMSO was added to RPMI medium 1640 (manufactured by Thermo Fisher Scientific, Inc., 11875) containing 1% FBS and 1% penicillin/streptomycin/amphotericin B to prepare a medium containing the test compound having a concentration of two times the final concentration. This medium was added at 100 μL/well to the coated plate. TFK-1 cells (Cell Resource Center for Biomedical Research, Institute of Development, Aging and Cancer, Tohoku University) cultured in RPMI medium 1640 containing 10% FBS and 1% penicillin/streptomycin/amphotericin B were suspended in RPMI medium 1640 containing 1% FBS and 1% penicillin/streptomycin/amphotericin B to prepare a cell suspension of 1×10^6 cells/mL. The prepared cell suspension was further added at 100 μL/well and cultured for 2 days in a 5% CO2 incubator (37° C.).
Phosphorylated SMAD3 in the cells thus cultured for 2 days was measured using Phospho-SMAD3 (Ser423/425) cellular kit (manufactured by cisbio, 63ADK025), and a DeltaF value was calculated according to the calculation expression of the kit. Inhibition when 10 μM LY364947 (FUJIFILM Wako Pure Chemical Corp., 123-05981) was added instead of the test compound was defined as 100% inhibition, and inhibition when DMSO was added instead was defined as 0% inhibition. The rate of inhibition of phosphorylated SMAD3 by the test compound was calculated according to the following expression.
Rate of inhibition of phosphorylated SMAD3 (%)=[1−{(DeltaF value in the case of adding the test compound)−(DeltaF value in the case of adding 10 μM LY364947)}/{(DeltaF value in the case of adding DMSO)−(DeltaF value in the case of adding 10 μM LY364947)}]×100
An IC50 value was calculated from the rate of inhibition of phosphorylated SMAD3 by the test compound. A: IC50<10 nM, B: 10 nM≤IC50<50 nM, C: 50 nM≤IC50<100 nM, or D: IC50≥100 nM.

[2] = test system: Human hepatic stellate cells; experiment: Active human hepatic stellate cell dedifferentiation test (decrease in ACTA2 mRNA expression); format: cell-based; conditions: 3 days differentiation then 2 days with compound, read-out: IC50 (rate of decrease in ACTA2 mRNA expression)
Experimental: Human hepatic stellate cells (manufactured by ScienCell Research Laboratories, Inc., 5300) were suspended in DMEM containing 10% FBS and […] penicillin/streptomycin/amphotericin B to prepare a cell suspension of 0.5×10^5 cells/mL, which was regarded as cells at the start of differentiation. The cells at the start of differentiation were dispensed at 1 mL/well to a 12-well plate and cultured, for differentiation, for 3 days in a 5% CO2 incubator (37° C.).
The culture solution in each well was removed, and DMEM containing 10% FBS and 1% penicillin/streptomycin/amphotericin B supplemented with a test compound dissolved in DMSO (final DMSO concentration: 0.1%) was added at 1 mL/well. The resultant was further cultured for 2 days in a 5% CO2 incubator (37° C.). In Test Example 4, the same reagents as in Test Example 1 were used unless otherwise specified.
RNA in the cultured cells was extracted using NucleoSpin® RNA (manufactured by Takara Bio Inc., U0955C), and cDNA was further synthesized from the extracted RNA using Prime Script™ RT reagent Kit with gDNA Eraser (manufactured by Takara Bio Inc., RR047A). Real time PCR was performed using the synthesized cDNA, various primers and TB Green® Premix Ex Taq™ II (manufactured by Takara Bio Inc., RR820A) and using PCR Thermal Cycler Dice Real Time (manufactured by Takara Bio Inc., System Code TP910, Model Code TP900). The primers used were actin alpha 2, smooth muscle (ACTA2) primer (manufactured by Takara Bio Inc., HA136273) and glyceraldehyde-3-phosphate dehydrogenase (GAPDH) primer (manufactured by Takara Bio Inc., HA067812).
The amplification curve of PCR was analyzed by the comparative Ct method. The expression level of ACTA2 mRNA was corrected with the expression level of GAPDH mRNA. An ACTA2 mRNA expression level when DMSO was added instead of the test compound was defined as 100%, and an ACTA2 mRNA expression level in the cells at the start of differentiation was defined as 0%. The rate of decrease in ACTA2 mRNA expression by the test compound was calculated according to the following expression.
Rate of decrease in ACTA2 mRNA expression (%)=[1−{(ACTA2 mRNA expression level in the case of adding the test compound)−(ACTA2 mRNA expression level in the cells at the start of differentiation)}/{(ACTA2 mRNA expression level in the case of adding DMSO)−(ACTA2 mRNA expression level in the cells at the start of differentiation)}]×100
An IC50 value was calculated from the rate of decrease in ACTA2 mRNA expression by the test compound. A: IC50<10 nM, B: 10 nM≤IC50<50 nM, C: 50 nM≤IC50<100 nM, or D: IC50≥100 nM.

Row | Compound | IC50 [1] [nM] | IC50 [2] [nM]
1 | O=C(O)C[C@H](NC(=O)CNC(=O)c1cc(NC2=NCC(F)CN2)c2cn[nH]c2c1)c1cc(C(F)(F)F)cc(C(F)(F)F)c1 (stereo partly drawn) [Example 7-(b), (3S)-3-(3,5-bis(trifluoromethyl)phenyl)-3-(2-(4-((5-fluoro-1,4,5,6-tetrahydropyrimidin-2-yl)amino)-1H-indazole-6-carboxamido)acetamido)propanoic acid] | < 10 | < 10
2 | O=C(O)C[C@H](NC(=O)CNC(=O)c1cc(NC2=NCC(F)CN2)c2cn[nH]c2c1)c1cc(-n2cccn2)cc(C(F)(F)F)c1 (stereo partly drawn) [Example 8-(b), (3S)-3-(3-(1H-pyrazol-1-yl)-5-(trifluoromethyl)phenyl)-3-(2-(4-((5-fluoro-1,4,5,6-tetrahydropyrimidin-2-yl)amino)-1H-indazole-6-carboxamido)acetamido)propanoic acid] | < 10 | 50 to 100
3 | O=C(O)C[C@H](NC(=O)CNC(=O)c1cc(NC2=NCC(F)CN2)c2cn[nH]c2c1)c1cccc(C(F)(F)F)c1F (stereo partly drawn) [Example 9-(b), (3S)-3-(2-(4-((5-fluoro-1,4,5,6-tetrahydropyrimidin-2-yl)amino)-1H-indazole-6-carboxamido)acetamido)-3-(2-fluoro-3-(trifluoromethyl)phenyl)propanoic acid] | 50 to 100 | 10 to 50
4 | O=C(O)C[C@H](NC(=O)CNC(=O)c1cc(NC2=NCC(F)CN2)c2cn[nH]c2c1)c1cccc(C(F)(F)F)c1Cl (stereo partly drawn) [Example 10-(b), (3S)-3-(2-chloro-3-(trifluoromethyl)phenyl)-3-(2-(4-((5-fluoro-1,4,5,6-tetrahydropyrimidin-2-yl)amino)-1H-indazole-6-carboxamido)acetamido)propanoic acid] | ≥ 100 | ≥ 100
5 | O=C(O)C[C@H](NC(=O)CNC(=O)c1cc(NC2=NCC(F)CN2)c2cn[nH]c2c1)c1cc(C(F)(F)F)ccc1F (stereo partly drawn) [Example 11-(b), (3S)-3-(2-(4-((5-fluoro-1,4,5,6-tetrahydropyrimidin-2-yl)amino)-1H-indazole-6-carboxamido)acetamido)-3-(2-fluoro-5-(trifluoromethyl)phenyl)propanoic acid] | < 10 | < 10
6 | O=C(O)C[C@H](NC(=O)CNC(=O)c1cc(NC2=NCC(F)CN2)c2cn[nH]c2c1)c1cc(C(F)(F)F)ccc1Cl (stereo partly drawn) [Example 12-(b), (3S)-3-(2-chloro-5-(trifluoromethyl)phenyl)-3-(2-(4-((5-fluoro-1,4,5,6-tetrahydropyrimidin-2-yl)amino)-1H-indazole-6-carboxamido)acetamido)propanoic acid] | ≥ 100 | 10 to 50
7 | O=C(O)C[C@H](NC(=O)CNC(=O)c1cc(NC2=NCC(F)CN2)c2cn[nH]c2c1)c1ccc(F)c(C(F)(F)F)c1 (stereo partly drawn) [Example 13-(b), (3S)-3-(2-(4-((5-fluoro-1,4,5,6-tetrahydropyrimidin-2-yl)amino)-1H-indazole-6-carboxamido)acetamido)-3-(4-fluoro-3-(trifluoromethyl)phenyl)propanoic acid] | 10 to 50 | 10 to 50
8 | Cc1ccc([C@H](CC(=O)O)NC(=O)CNC(=O)c2cc(NC3=NCC(F)CN3)c3cn[nH]c3c2)cc1C(F)(F)F (stereo partly drawn) [Example 14-(b), (3S)-3-(2-(4-((5-fluoro-1,4,5,6-tetrahydropyrimidin-2-yl)amino)-1H-indazole-6-carboxamido)acetamido)-3-(4-methyl-3-(trifluoromethyl)phenyl)propanoic acid] | < 10 | < 10
9 | O=C(O)C[C@H](NC(=O)CNC(=O)c1cc(NC2=NCC(F)CN2)c2cn[nH]c2c1)c1cc(Cl)c(F)c(C(F)(F)F)c1 (stereo partly drawn) [Example 15-(b), (3S)-3-(3-chloro-4-fluoro-5-(trifluoromethyl)phenyl)-3-(2-(4-((5-fluoro-1,4,5,6-tetrahydropyrimidin-2-yl)amino)-1H-indazole-6-carboxamido)acetamido)propanoic acid] | < 10 | < 10
10 | COc1ccc([C@H](CC(=O)O)NC(=O)CNC(=O)c2cc(NC3=NCC(F)CN3)c3cn[nH]c3c2)cc1Br (stereo partly drawn) [Example 16-(b), (3S)-3-(3-bromo-4-methoxyphenyl)-3-(2-(4-((5-fluoro-1,4,5,6-tetrahydropyrimidin-2-yl)amino)-1H-indazole-6-carboxamido)acetamido)propanoic acid] | 10 to 50 | < 10
11 | O=C(O)C[C@H](NC(=O)CNC(=O)c1cc(NC2=NCC(F)CN2)c2cn[nH]c2c1)c1cc(Cl)cc(Cl)c1 (stereo partly drawn) [Example 17-(b), (3S)-3-(3,5-dichlorophenyl)-3-(2-(4-((5-fluoro-1,4,5,6-tetrahydropyrimidin-2-yl)amino)-1H-indazole-6-carboxamido)acetamido)propanoic acid] | < 10 | 10 to 50
12 | O=C(O)C[C@H](NC(=O)CNC(=O)c1cc(NC2=NCC(F)CN2)c2cn[nH]c2c1)c1cc(Cl)cc(Br)c1 (stereo partly drawn) [Example 18-(b), (3S)-3-(3-bromo-5-chlorophenyl)-3-(2-(4-((5-fluoro-1,4,5,6-tetrahydropyrimidin-2-yl)amino)-1H-indazole-6-carboxamido)acetamido)propanoic acid] | 10 to 50 | < 10
13 | O=C(O)C[C@H](NC(=O)CNC(=O)c1cc(NC2=NCC(F)CN2)c2cn[nH]c2c1)c1cc(Br)cc(Br)c1 (stereo partly drawn) [Example 19-(b), (3S)-3-(3,5-dibromophenyl)-3-(2-(4-((5-fluoro-1,4,5,6-tetrahydropyrimidin-2-yl)amino)-1H-indazole-6-carboxamido)acetamido)propanoic acid] | < 10 | < 10
14 | O=C(O)C[C@H](NC(=O)CNC(=O)c1cc(NC2=NCC(F)CN2)c2cn[nH]c2c1)c1cc(Br)cc(I)c1 (stereo partly drawn) [Example 20-(b), (3S)-3-(3-bromo-5-iodophenyl)-3-(2-(4-((5-fluoro-1,4,5,6-tetrahydropyrimidin-2-yl)amino)-1H-indazole-6-carboxamido)acetamido)propanoic acid] | < 10 | < 10
15 | O=C(O)C[C@H](NC(=O)CNC(=O)c1cc(NC2=NCC(F)CN2)c2cn[nH]c2c1)c1cc(Cl)cc(I)c1 (stereo partly drawn) [Example 21-(b), (3S)-3-(3-chloro-5-iodophenyl)-3-(2-(4-((5-fluoro-1,4,5,6-tetrahydropyrimidin-2-yl)amino)-1H-indazole-6-carboxamido)acetamido)propanoic acid] | < 10 | 10 to 50
